# Measured values as given in article PMC11468049 (Fluids and Barriers of the CNS, 2024).
# Experiments:
# [1] = system: iPSC-derived BMEC-like cells; assay: in vitro Aβ transcytosis assay (basolateral-to-apical, Transwell); assay type: cell-based, human; settings: 3 h, 37 °C; for effect of recombinant APOE isoform on Aβ42 trafficking: 500 nM rhAPOE plus 500 nM Aβ42 basolateral
# Method: (§1) Transwells (Corning, 3460) pre-coated with 200 uL 0.5 mg/mL collagen IV (Sigma, C5533) overnight at 37 °C. iPSC-derived BMEC-like cells were seeded at 1 million/cm^2 on Transwells (Corning, 3460) in hECSR media. […] This buffer helps to maintain Aβ in monomeric and denatured state. Stocks were then diluted to 500 nM in hECSR medium immediately before experiments. For experiments conditions when recombinant APOE is added, recombinant APOE2 (Peprotech, 350 − 12), APOE3 (Peprotech, 350-02) or APOE4 (Peprotech, 350-04) were added at concentration of 500 nM. In transcytosis assay, 1.5 mL of hECSR medium with Aβ and/or recombinant APOE was added to the basolateral chamber. 0.5 mL of hECSR media that is Aβ-free and APOE-free was added to the apical chamber. The Transwells were then incubated at 37 °C on a 300 rpm orbital shaker for 3 h. Media samples from the apical chamber were taken and analyzed.
# [2] = system: iPSC-derived pericyte-like cells; assay: Aβ42-Hylite488 internalization by pericyte-like cells (confocal microscopy); assay type: cell-based, human; settings: confocal microscopy (Fig. 5D)
# From the text: Data are reported as mean ± standard deviation. […] The last column contains the merged images. Scale bars: 10 μm. […] (n = 4 wells of biological replicates per condition) **: p < 0.01 in Student’s t-test. Data are reported as mean ± standard deviation. […] Confocal microscopy images were taken at 5 μm z-slice intervals. All z-slices with Hoechst 33342 nuclear staining were aggregated for maximum intensity projection analysis. Scale bars: 10 μm.
# LRP1 [3] = molecular target: T1, LRP1 (Homo sapiens, UniProt Q07954); assay: in vitro Aβ transcytosis assay with LRP1 inhibition by RAP; assay type: cell-based; settings: APOE3 iPSC-derived BMEC-like cells on Transwell; with and without RAP; 3 h; apical Aβ40 by ELISA; n = 8 wells (Fig. 2D)
# T1 construct: endogenous in cells; host or cells: APOE3 human iPSC-derived BMEC-like cells
# T1 sequence (Q07954 20-4544): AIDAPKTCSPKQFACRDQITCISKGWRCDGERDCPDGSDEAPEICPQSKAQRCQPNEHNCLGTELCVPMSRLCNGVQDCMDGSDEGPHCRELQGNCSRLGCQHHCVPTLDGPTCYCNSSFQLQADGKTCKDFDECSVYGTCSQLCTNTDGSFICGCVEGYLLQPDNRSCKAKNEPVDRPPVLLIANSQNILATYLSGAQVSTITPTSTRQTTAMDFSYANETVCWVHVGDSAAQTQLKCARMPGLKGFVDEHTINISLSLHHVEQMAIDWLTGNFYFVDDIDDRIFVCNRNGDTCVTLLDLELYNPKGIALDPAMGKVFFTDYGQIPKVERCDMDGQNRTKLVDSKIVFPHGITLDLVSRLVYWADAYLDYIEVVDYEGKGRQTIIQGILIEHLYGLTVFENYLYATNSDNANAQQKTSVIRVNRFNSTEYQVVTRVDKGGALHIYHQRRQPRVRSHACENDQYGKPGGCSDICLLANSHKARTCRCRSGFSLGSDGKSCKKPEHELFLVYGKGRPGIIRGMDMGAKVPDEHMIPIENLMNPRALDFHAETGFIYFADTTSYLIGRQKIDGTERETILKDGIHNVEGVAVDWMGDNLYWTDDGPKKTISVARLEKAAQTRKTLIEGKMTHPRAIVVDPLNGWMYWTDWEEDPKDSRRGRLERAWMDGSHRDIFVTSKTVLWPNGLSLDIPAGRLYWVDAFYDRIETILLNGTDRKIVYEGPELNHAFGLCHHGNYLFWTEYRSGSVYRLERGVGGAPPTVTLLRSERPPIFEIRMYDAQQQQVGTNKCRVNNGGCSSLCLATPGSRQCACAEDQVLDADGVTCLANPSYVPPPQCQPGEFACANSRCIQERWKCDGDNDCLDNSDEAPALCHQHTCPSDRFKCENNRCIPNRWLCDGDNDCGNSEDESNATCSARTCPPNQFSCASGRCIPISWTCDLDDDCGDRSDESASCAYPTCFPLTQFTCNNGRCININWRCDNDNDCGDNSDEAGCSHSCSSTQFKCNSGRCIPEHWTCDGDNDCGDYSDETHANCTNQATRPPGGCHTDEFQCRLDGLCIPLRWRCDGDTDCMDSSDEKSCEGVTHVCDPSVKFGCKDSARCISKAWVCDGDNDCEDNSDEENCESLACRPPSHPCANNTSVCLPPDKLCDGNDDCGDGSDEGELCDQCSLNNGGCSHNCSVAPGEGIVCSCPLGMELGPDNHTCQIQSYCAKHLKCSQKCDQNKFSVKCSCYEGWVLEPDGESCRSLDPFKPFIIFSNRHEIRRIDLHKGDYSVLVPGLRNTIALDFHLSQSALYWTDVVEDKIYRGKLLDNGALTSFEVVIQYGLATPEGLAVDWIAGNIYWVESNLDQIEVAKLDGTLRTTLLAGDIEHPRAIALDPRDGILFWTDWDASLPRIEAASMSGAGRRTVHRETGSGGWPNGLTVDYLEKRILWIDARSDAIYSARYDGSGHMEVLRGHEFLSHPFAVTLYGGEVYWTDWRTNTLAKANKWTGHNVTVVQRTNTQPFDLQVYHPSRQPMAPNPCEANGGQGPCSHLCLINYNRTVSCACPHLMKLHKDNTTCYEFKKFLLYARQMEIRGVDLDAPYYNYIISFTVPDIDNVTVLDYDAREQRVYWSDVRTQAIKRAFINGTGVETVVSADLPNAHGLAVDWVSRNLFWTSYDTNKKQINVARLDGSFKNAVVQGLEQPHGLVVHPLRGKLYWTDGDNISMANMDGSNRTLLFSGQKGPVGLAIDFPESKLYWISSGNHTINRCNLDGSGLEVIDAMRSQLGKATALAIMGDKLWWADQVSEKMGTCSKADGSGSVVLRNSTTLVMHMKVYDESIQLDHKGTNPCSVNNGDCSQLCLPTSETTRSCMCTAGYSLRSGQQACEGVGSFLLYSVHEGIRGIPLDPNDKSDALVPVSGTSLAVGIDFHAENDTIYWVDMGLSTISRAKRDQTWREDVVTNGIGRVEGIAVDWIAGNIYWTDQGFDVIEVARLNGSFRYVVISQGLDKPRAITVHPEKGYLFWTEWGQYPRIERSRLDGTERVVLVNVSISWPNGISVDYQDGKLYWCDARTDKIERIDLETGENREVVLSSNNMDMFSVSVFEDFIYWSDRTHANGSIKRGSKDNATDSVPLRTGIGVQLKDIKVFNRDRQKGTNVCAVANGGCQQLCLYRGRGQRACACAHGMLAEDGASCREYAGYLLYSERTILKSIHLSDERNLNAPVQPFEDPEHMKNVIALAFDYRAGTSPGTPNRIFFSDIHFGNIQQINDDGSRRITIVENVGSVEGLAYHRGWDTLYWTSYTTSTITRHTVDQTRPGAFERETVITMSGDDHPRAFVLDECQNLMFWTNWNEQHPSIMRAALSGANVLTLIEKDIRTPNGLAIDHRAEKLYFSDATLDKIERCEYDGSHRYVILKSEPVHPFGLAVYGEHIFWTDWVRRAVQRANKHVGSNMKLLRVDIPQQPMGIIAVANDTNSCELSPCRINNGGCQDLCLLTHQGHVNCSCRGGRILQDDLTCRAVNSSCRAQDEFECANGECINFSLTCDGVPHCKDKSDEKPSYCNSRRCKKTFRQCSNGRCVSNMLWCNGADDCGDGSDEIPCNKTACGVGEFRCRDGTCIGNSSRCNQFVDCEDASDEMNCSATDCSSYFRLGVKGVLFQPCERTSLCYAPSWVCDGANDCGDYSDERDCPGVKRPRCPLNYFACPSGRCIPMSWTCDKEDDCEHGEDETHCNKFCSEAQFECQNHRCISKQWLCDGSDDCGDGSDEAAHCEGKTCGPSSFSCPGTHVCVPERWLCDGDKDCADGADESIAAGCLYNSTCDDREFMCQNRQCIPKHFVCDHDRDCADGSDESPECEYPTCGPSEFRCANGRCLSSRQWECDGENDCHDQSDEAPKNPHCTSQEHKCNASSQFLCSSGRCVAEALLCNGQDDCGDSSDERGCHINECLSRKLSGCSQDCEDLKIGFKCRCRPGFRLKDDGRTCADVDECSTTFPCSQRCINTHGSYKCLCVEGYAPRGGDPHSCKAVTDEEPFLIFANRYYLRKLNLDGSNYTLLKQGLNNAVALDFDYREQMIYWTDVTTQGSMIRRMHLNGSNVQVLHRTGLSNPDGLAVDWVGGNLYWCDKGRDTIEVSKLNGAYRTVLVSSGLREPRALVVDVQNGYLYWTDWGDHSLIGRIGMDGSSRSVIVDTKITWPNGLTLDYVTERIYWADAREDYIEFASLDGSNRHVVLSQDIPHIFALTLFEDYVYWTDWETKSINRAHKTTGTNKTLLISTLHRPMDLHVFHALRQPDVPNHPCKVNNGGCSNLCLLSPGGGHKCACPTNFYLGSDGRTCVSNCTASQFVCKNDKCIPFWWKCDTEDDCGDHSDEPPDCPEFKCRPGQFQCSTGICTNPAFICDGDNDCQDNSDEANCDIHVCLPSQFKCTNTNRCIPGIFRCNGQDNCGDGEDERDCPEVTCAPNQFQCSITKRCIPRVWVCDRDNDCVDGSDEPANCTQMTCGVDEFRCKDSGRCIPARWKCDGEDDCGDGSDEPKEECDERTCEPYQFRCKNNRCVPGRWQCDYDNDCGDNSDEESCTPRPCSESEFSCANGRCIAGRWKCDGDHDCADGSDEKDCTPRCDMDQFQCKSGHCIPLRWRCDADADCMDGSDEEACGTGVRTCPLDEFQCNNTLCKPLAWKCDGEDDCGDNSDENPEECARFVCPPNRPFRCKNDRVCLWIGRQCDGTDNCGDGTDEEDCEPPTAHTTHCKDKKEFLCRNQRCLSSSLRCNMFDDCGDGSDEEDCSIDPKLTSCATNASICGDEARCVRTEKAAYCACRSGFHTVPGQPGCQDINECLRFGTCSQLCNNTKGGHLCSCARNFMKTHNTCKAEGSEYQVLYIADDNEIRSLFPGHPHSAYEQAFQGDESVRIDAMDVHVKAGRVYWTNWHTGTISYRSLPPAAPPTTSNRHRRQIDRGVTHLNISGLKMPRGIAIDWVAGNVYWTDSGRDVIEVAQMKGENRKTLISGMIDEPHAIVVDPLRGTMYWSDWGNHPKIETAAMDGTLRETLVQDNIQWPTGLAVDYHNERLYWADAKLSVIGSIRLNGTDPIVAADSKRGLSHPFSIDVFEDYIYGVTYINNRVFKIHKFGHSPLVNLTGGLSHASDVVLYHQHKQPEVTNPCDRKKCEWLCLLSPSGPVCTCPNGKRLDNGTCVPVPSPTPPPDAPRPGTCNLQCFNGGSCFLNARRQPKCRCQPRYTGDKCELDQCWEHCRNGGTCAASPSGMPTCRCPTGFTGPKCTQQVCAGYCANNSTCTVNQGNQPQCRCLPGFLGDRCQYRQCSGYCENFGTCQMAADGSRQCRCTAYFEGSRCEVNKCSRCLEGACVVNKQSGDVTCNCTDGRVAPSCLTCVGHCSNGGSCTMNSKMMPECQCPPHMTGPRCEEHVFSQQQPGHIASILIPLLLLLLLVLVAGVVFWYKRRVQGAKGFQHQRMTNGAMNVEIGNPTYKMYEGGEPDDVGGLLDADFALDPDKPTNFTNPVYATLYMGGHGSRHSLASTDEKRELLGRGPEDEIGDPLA
# Method: as §1
# (Fig. 2A). […] (Fig. 2E).
# LRP1 [4] = molecular target: T1, LRP1; assay: Aβ42-Hylite488 internalization by pericyte-like cells with LRP1 inhibition by RAP; assay type: cell-based; settings: APOE3 pericyte-like cells; with or without RAP; confocal MFI; n = 4 (Fig. 5D, E)
# From the text: Patients with AD commonly have amyloid deposits associated with their brain vasculature, contributing to a pathological condition known as cerebral amyloid angiopathy (CAA). Recently, a role of pericytes in CAA has been reported. We quantified deposition of Aβ42, the Aβ isoform more prone to aggregation, for pericyte-like cells expressing different APOE isoforms. […] The pericyte-like cells were then singularized, washed and fixed, but not permeabilized, for cell surface immunolabeling with an anti-Aβ antibody. […] In the same way, we then examined the impact of APOE genotype on pericyte-like cell internalization of Aβ42.
# Pericyte-like cells were then singularized, washed and labeled with anti-Aβ-FITC antibody for flow cytometry quantification of cell surface-associated Aβ42. […] FSC: forward scatter. Histogram is normalized to mode. […] Data are reported as mean ± standard deviation. (D) Representative confocal microscopy images showing accumulation of intracellular Aβ42-Hylite488 with or without LRP1 inhibition by RAP in APOE3 pericyte-like cells. […] (E) Quantification of mean fluorescence intensity (MFI) of Aβ42-Hylite488 accumulated inside APOE3 pericyte-like cells by confocal microscopy. […] (G) Quantification of mean fluorescence intensity (MFI) in maximum intensity projection confocal microscopy images of Aβ42-Hylite488 accumulated inside iPSC-derived pericytes by confocal microscopy. […]
# [5] = APOE KO BMEC-like cells on Transwell, apical ELISA, vs no APOE control, n = 12 (Fig. 3D)
substance,measurement,setting,value
"rhAPOE2: recombinant human APOE2 (Peprotech, 350 − 12)",effect of recombinant APOE isoform on Aβ42 trafficking,[1]; [5],significantly increased the trafficking of Aβ42
Aβ42-HyLite488: fluorescently labeled Aβ42,internalization by APOE3 pericyte-like cells,[2],internalized fluorescently labeled Aβ42-HyLite488
"rhAPOE3: recombinant human APOE3 (Peprotech, 350-02)",effect on basolateral-to-apical Aβ40 transcytosis,"[1]; APOE3 iPSC-derived BMEC-like cells on Transwell, Aβ40 dosed basolateral with or without rhAPOE3, apical Aβ40 by ELISA, n = 8 wells (Fig. 2D)",facilitated Aβ40 transcytosis
same,effect of recombinant APOE isoform on Aβ40 trafficking,"[1]; APOE KO BMEC-like cells on Transwell, 500 nM rhAPOE plus 500 nM Aβ40 basolateral, apical ELISA, vs no APOE control, n = 12 (Fig. 3D)",significantly increased the trafficking of Aβ40
RAP: LRP1 inhibitor; competes with APOE for LRP1 binding,effect of LRP1 inhibition on basolateral-to-apical Aβ40 transcytosis,LRP1 [3],reduced but did not completely inhibit Aβ transcytosis
same,effect of LRP1 inhibition on Aβ42-Hylite488 internalization,LRP1 [4],internalization was diminished
"rhAPOE4: recombinant human APOE4 (Peprotech, 350-04)",effect of recombinant APOE isoform on Aβ42 trafficking,[1]; [5],does not provide any increase in Aβ40 or Aβ42 clearance
